Measured values reported in patent publication US20210228530A1, “TAXANE-LIPID-POLYSACCHARIDE DUAL CONJUGATES, PREPARATION METHODS THEREOF AND USES THEREOF” (Santolecan Pharmaceuticals LLC, priority 2018, published 2021).
≈ marks a conversion by molar mass, not a printed value.

Columns and labels:
[1] = Enhanced solubility test for poorly water-soluble compounds; assay type: physicochemical; conditions: 1.0 mg alone in 2.0 ml distilled water, sonicated for 1 minute
MCF-7 tumor cells = assay: In vitro antitumor activity, MTT assay, MCF-7; assay type: cell-based; conditions: Homo sapiens, MCF7, 72 h treatment, conjugates in taxane molar equivalents
Description: (§1) In order to determine if the activity of the prepared intermediates and prepared conjugates, we evaluated their antitumor activities by using MTT assay.
(§2) All cell lines were maintained in a humidified atmosphere containing 5% CO2 at 37° C. in different media supplemented with 10% FBS, 100 U/ml penicillin, and 100 μg/ml streptomycin. MCF-7, NCI-H460 or OVCAR-3 tumor cells were seeded into a 96-well cell culture plate and incubated overnight. The 96-well culture plate was taken out from the incubator, and the conjugates or mixture of different compounds or polysaccharides were added into it. […] Three wells were set at each concentration. Blank control contained tumor cells in normal medium without any sample. After treatment for 72 h, 20 μL of 3-(4, 5-dimethylthiazole-2)-2,5-diphenyltetrazolium bromide (MTT) were added to each well and incubated for 4 hours at 37° C. […] The half-inhibitory concentration (IC50 value) of each compound or conjugate was calculated.

NCI-H460 tumor cells = assay: In vitro antitumor activity, MTT assay, NCI-H460; assay type: cell-based; conditions: Homo sapiens, 72 h treatment, conjugates in taxane molar equivalents
Description: as §1, §2

[2] = test system: OVCAR-3 (drug resistance) tumor cells; assay: In vitro antitumor activity, MTT assay, OVCAR-3; assay type: cell-based; conditions: Homo sapiens, 72 h, taxane molar equivalents, molar ratio of taxane to lipid (Paclitaxel:DHA) 1:0, 1:1, 1:2, 1:4 per row
Description: as §1
All cell lines were maintained in a humidified atmosphere containing 5% CO2 at 37° C. in different media supplemented with 10% FBS, 100 U/ml penicillin, and 100 μg/ml streptomycin. MCF-7, NCI-H460 or OVCAR-3 tumor cells were seeded into a 96-well cell culture plate and incubated overnight. The 96-well culture plate was taken out from the incubator, and the conjugates or mixture of different compounds or polysaccharides were added into it. The concentration of each compound or conjugate were set to 500 nM, 200 nM, 100 nM, 50 nM, 25 nM, 12.5 nM, 6 nM, 3 nM and 1 nM. Three wells were set at each concentration. Blank control contained tumor cells in normal medium without any sample. After treatment for 72 h, 20 μL of 3-(4, 5-dimethylthiazole-2)-2,5-diphenyltetrazolium bromide (MTT) were added to each well and incubated for 4 hours at 37° C. After the removal of the supernatant, MTT formazan was dissolved in 150 μl dimethyl sulfoxide (DMSO) and monitored using a microplate reader at a wavelength of 570 nm. The half-inhibitory concentration (IC50 value) of each compound or conjugate was calculated.

[3] = In vivo safety assay in xenograft nude mice: body weight and death; parameters: species or system BALB/c (nu/nu) mice; conditions: whole experiment period; 8.0 mg/kg docetaxel or equimolar dose, i.v. once a week, 4 weeks
Description: BALB/c (nu/nu) mice (20±2 g, 4-6 weeks old) were housed under pathogen-free conditions. Cancer cells such MCF-7 and NCI-H460 5.0×10^6, suspended in 100 μl PBS, were subcutaneously inoculated into the lower right rank of the nude mice. When the tumor size reached 100-150 mm^3, the mice were divided randomly into different groups (n=6 in each group). The control group received the solvent only. […] The mice were treated for 4 weeks. After the administration, the mice are raised normally. The tumor volume and mouse body weight were measured on every 3 days.

[4] = literature report, drugbank.ca; cited from earlier work
[5] = test system: metastatic malignant melanoma cancer; conditions: patients with metastatic malignant melanoma cancer; Ann. Oncol., 2011; cited from earlier work

Structure (SMILES)	observation of the compound alone in water [1]	IC50 (MCF-7 tumor cells) [nM]	IC50 (NCI-H460 tumor cells) [nM]	IC50 [2] [nM]	death of nude mice [3]	solubility in water (literature) [4] [µg/mL]	final survival rates versus dacarbazine group [5]
CC(=O)O[C@H]1C(=O)[C@@]2(C)[C@H]([C@H](OC(=O)c3ccccc3)[C@]3(O)C[C@H](OC(=O)[C@H](O)[C@@H](NC(=O)c4ccccc4)c4ccccc4)C(C)=C1C3(C)C)[C@]1(OC(C)=O)CO[C@@H]1C[C@@H]2O [Paclitaxel, paclitaxel]	undissolved powder floated over water surface was clearly observed	21.9 ± 1.1	17.9 ± 1.3	57.6 ± 6.3	–	–	–
CC(=O)O[C@@]12CO[C@@H]1C[C@H](O)[C@@]1(C)C(=O)[C@H](O)C3=C(C)[C@@H](OC(=O)[C@H](O)[C@@H](NC(=O)OC(C)(C)C)c4ccccc4)C[C@@](O)([C@@H](OC(=O)c4ccccc4)[C@H]21)C3(C)C [Docetaxel, docetaxel]	undissolved powder floated over water surface was clearly observed	9.5 ± 0.2	6.7 ± 0.6	–	no death	1.27 (≈ 1.57 µM)	–
CO[C@H]1C(=O)[C@]2(C)[C@@H](OC)C[C@H]3OC[C@@]3(OC(C)=O)[C@H]2[C@H](OC(=O)c2ccccc2)[C@]2(O)C[C@H](OC(=O)[C@H](O)[C@@H](NC(=O)OC(C)(C)C)c3ccccc3)C(C)=C1C2(C)C [Cabazitaxel, cabazitaxel]	–	8.3 ± 0.5	7.1 ± 0.3	–	–	–	–
CC/C=C\C/C=C\C/C=C\C/C=C\C/C=C\C/C=C/CCC(=O)O[C@@H](C(=O)O[C@H]1C[C@@]2(O)[C@@H](OC(=O)c3ccccc3)C3[C@](C)(C(=O)[C@H](OC(C)=O)C(=C1C)C2(C)C)[C@@H](O)C[C@H]1OC[C@@]31OC(C)=O)[C@@H](NC(=O)c1ccccc1)c1ccccc1 (stereo partly drawn) [DHA-paclitaxel]	–	–	–	–	–	–	no significant differences in final survival rates
